Bounds are passed on as bounds.

As a reminder, the IC50 is the concentration that inhibits the measured activity by half. The term inhibition denotes the relative decrease from the control value, in per cent. What is called Ki is the equilibrium dissociation constant of an inhibitor or competing ligand from its target.

In one series the test system is Plasmodium falciparum. Briefly: Antiplasmodial activity against chloroquine-susceptible blood forms of Plasmodium falciparum 3D7 infected in human erythrocytes measured after 48 hrs by SYBR green1 staining based fluorescence assay. The series is classed as functional, organism-based. The conditions noted are these: 3D7, 48 h.
Series [1] in a line: Therapeutic index, ratio of IC50 for African green monkey Vero cells to IC50 for chloroquine-susceptible blood forms of Plasmodium falciparum 3D7 infected in human erythrocytes. Format: toxicity, cell-based. The conditions noted are these: read-out: Ratio IC50.
Another series deals with Vero. Description: Cytotoxicity against African green monkey Vero cells after 48 hrs by MTT assay. To be noted: Chlorocebus sabaeus. Format: cell-based. (Tetrazolium dyes change colour on reduction, which living cells bring about.)
Another series deals with HepG2. Briefly: Cytotoxicity against human HepG2 cells after 48 hrs by MTT assay. The series is classed as cell-based. The conditions noted are these: HepG2, 48 h.
Series [2] is described as follows: Therapeutic index, ratio of IC50 for human HepG2 cells to IC50 for chloroquine-susceptible blood forms of Plasmodium falciparum 3D7 infected in human erythrocytes. To be noted: read-out: Ratio IC50. The series is classed as toxicity, cell-based.
The target in series [3] is Plasmepsin 4 (Plasmodium falciparum) (UniProt Q17SB2). Description: (§1) Inhibition of Plasmodium falciparum Plm4 using synthetic substrate pretreated for 5 mins followed by substrate addition measured immediately by spectrophotometric method.
Chain of Plasmepsin 4 (Plasmodium falciparum) (Q17SB2 1-448): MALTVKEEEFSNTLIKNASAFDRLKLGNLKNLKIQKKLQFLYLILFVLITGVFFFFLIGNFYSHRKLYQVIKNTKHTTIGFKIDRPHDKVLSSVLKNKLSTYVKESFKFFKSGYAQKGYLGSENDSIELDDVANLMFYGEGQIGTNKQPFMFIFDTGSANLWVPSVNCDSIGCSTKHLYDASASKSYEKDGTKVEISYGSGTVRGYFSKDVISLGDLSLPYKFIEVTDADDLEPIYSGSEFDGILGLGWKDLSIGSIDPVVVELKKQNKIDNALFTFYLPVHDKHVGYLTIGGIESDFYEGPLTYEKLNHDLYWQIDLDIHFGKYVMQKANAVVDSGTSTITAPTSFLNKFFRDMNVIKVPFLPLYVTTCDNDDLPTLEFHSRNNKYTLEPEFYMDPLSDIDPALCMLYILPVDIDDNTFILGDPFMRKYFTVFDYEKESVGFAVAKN
Another series concerns the target Plasmepsin 4 (Plasmodium falciparum, UniProt Q17SB2). The description is as §1.
Series [4] deals with Plasmepsin 4 (Plasmodium falciparum) (UniProt Q17SB2). Briefly: Inhibition of Plasmodium falciparum Plm4 at 10 uM using synthetic substrate pretreated for 5 mins followed by substrate addition measured immediately by spectrophotometric method relative to control.
The target in series [5] is Plasmepsin II (Plasmodium falciparum) (UniProt P46925). Briefly: Inhibition of Plasmodium falciparum Plm2 at 10 uM using synthetic substrate pretreated for 5 mins followed by substrate addition measured immediately by spectrophotometric method relative to control.
Chain of Plasmepsin II (Plasmodium falciparum) (P46925 125-453 limits assumed): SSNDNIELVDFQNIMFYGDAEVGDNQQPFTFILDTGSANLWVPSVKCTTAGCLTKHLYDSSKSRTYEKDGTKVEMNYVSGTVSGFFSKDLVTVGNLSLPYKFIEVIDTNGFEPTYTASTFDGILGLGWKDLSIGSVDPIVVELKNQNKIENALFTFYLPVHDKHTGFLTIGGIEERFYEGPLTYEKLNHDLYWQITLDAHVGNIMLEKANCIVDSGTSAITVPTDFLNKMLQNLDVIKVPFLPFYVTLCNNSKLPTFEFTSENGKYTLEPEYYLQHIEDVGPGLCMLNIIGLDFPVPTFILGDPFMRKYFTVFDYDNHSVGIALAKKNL
Series [6] shares this target. Description: (§2) Inhibition of Plasmodium falciparum Plm2 using synthetic substrate pretreated for 5 mins followed by substrate addition measured immediately by spectrophotometric method.
For the next series, the target named is Plasmepsin II (Plasmodium falciparum, UniProt P46925). The series is described as §2.
Chain of Plasmepsin II (P46925 whole entry): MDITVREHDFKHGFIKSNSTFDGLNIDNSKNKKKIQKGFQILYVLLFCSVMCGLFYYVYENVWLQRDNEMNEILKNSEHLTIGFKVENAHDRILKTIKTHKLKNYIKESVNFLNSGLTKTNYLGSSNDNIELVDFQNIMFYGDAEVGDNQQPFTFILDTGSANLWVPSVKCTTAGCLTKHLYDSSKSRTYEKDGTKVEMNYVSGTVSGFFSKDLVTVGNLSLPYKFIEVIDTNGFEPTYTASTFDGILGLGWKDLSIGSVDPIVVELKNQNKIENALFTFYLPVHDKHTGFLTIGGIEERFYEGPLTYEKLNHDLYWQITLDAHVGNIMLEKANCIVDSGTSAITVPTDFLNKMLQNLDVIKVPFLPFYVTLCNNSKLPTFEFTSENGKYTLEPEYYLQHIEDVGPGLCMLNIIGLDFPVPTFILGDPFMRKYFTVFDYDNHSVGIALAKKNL

Chain of Plasmepsin 4 (Q17SB2 whole entry): as the sequence (Q17SB2 1-448) above

In the case of `CC[C@H](C)[C@H](NC(=O)OC(C)(C)C)C(=O)N[C@@H](Cc1ccccc1)[C@H](O)CN1CCN(C[C@@H](O)[C@H](Cc2ccccc2)NC(=O)[C@@H](NC(=O)OC(C)(C)C)[C@@H](C)CC)CC1`, in the series on Plasmodium falciparum, the IC50 was determined as 1.84 µM.
On the same count and under the same terms, under `C[C@@H]1CC[C@H]2[C@@H](C)C(=O)O[C@@H]3O[C@@]4(C)CC[C@@H]1[C@]32OO4` [ARTEMISININ] stands 0.074 µM.
Turning to `CC[C@H](C)[C@H](N)C(=O)N[C@@H](Cc1ccccc1)[C@H](O)CN1CCN(C[C@@H](O)[C@H](Cc2ccccc2)NC(=O)[C@@H](N)[C@@H](C)CC)CC1`, the selectivity ratio in series [1] and in series [2] was above 10 throughout. Further, the IC50 in the series on Vero is above 156 µM; in the series with HepG2 it was 125 µM; in the series with Plasmodium falciparum it was 1.35 µM.
For the compound `Cc1ccc2c(c1)C(=O)N([C@H](C(=O)NC(Cc1ccccc1)C(O)CN1CCN(C[C@@H](O)[C@H](Cc3ccccc3)NC(=O)[C@H](C(C)C)N3C(=O)c4ccc(C)cc4C3=O)CC1)C(C)C)C2=O` (single isomer, unassigned), half-maximal inhibition in the series on Plasmodium falciparum (IC50) required 2.26 µM.
As to `CC[C@H](C)[C@@H](C(=O)N[C@@H](Cc1ccccc1)[C@H](O)CN1CCN(C[C@@H](O)[C@H](Cc2ccccc2)NC(=O)[C@H]([C@@H](C)CC)N2C(=O)c3ccc(C)cc3C2=O)CC1)N1C(=O)c2ccc(C)cc2C1=O`, the inhibition entry in series [3] was “Dose-dependent effect”; in [4], above 50%; in [5] it was above 50%; in series [6] it was “Dose-dependent effect”. Further, the Ki on Plasmepsin 4 was 0.841 µM. In the series with Plasmodium falciparum, this compound yielded a concentration for half-maximal inhibition (IC50) of 3.11 µM.
Consider `Cc1ccc2c(c1)C(=O)N(CC(=O)N[C@@H](Cc1ccccc1)[C@H](O)CN1CCN(C[C@H](O)[C@@H](Cc3ccccc3)NC(=O)CN3C(=O)c4ccc(C)cc4C3=O)CC1)C2=O`, for which the inhibition entry in [3] was “Dose-dependent effect”; in [4], above 50%; in [5], above 50%; in series [6], “Dose-dependent effect”. Moreover, the inhibition constant Ki at Plasmepsin 4 was determined as 3.35 µM. This compound also registered an IC50 in the series with Plasmodium falciparum of 10.8 µM.
Consider `CC(C)[C@H](NC(=O)OC(C)(C)C)C(=O)N[C@@H](Cc1ccccc1)[C@H](O)CN1CCN(C[C@H](O)[C@@H](Cc2ccccc2)NC(=O)[C@@H](NC(=O)OC(C)(C)C)C(C)C)CC1`, for which, in the series with Plasmodium falciparum, 4.38 µM corresponded to half-maximal inhibition (IC50).
`CC(C)(C)OC(=O)NCC(=O)NC(Cc1ccccc1)C(O)CN1CCN(C[C@@H](O)[C@H](Cc2ccccc2)NC(=O)CNC(=O)OC(C)(C)C)CC1` (single isomer, unassigned) gave a concentration for half-maximal inhibition (IC50) in the series with Plasmodium falciparum of 8.6 µM.
Still for that read-out and setting: under `N[C@@H](Cc1ccccc1)[C@H](O)CN1CCN(C[C@@H](O)[C@@H](N)Cc2ccccc2)CC1` stands 3.47 µM.
For `Cc1ccc2c(c1)C(=O)N([C@@H](CC(C)C)C(=O)NC(Cc1ccccc1)C(O)CN1CCN(C[C@@H](O)[C@H](Cc3ccccc3)NC(=O)[C@H](CC(C)C)N3C(=O)c4ccc(C)cc4C3=O)CC1)C2=O` (single isomer, unassigned), the inhibition result in series [3] is “Dose-dependent effect”; in [4] it was above 50%; in series [5], above 50%; in series [6], “Dose-dependent effect”. The values for the Ki at Plasmepsin 4 and at Plasmepsin II were 1.98 µM and 1.92 µM, respectively. The selectivity ratio in series [1] and in series [2] was above 10 throughout. In addition, the figures for the IC50 with Vero, in the series on HepG2 and with Plasmodium falciparum were 60 µM, 27 µM and 2.27 µM, respectively.
`O=C(CN1C(=O)c2ccccc2C1=O)NC(Cc1ccccc1)C(O)CN1CCN(C[C@@H](O)[C@H](Cc2ccccc2)NC(=O)CN2C(=O)c3ccccc3C2=O)CC1` (single isomer, unassigned) showed a 50% inhibitory concentration (IC50) with Plasmodium falciparum of 20.3 µM.
In turn, `C[C@@H](C(=O)NC(Cc1ccccc1)C(O)CN1CCN(C[C@@H](O)[C@H](Cc2ccccc2)NC(=O)[C@H](C)N2C(=O)c3ccccc3C2=O)CC1)N1C(=O)c2ccccc2C1=O` (single isomer, unassigned) displayed a 50% inhibitory concentration (IC50) with Plasmodium falciparum of 7.6 µM.
The same measure, in the same setting: under `Cc1ccc2c(c1)C(=O)N([C@@H](C)C(=O)NC(Cc1ccccc1)C(O)CN1CCN(C[C@@H](O)[C@H](Cc3ccccc3)NC(=O)[C@H](C)N3C(=O)c4ccc(C)cc4C3=O)CC1)C2=O` (single isomer, unassigned) stands 19 µM; under `C[C@H](NC(=O)OC(C)(C)C)C(=O)N[C@@H](Cc1ccccc1)[C@H](O)CN1CCN(C[C@H](O)[C@@H](Cc2ccccc2)NC(=O)[C@H](C)NC(=O)OC(C)(C)C)CC1`, 8.28 µM.
Still for that read-out and setting: for `CC(C)[C@H](N)C(=O)NC(Cc1ccccc1)C(O)CN1CCN(C[C@@H](O)[C@H](Cc2ccccc2)NC(=O)[C@@H](N)C(C)C)CC1` (single isomer, unassigned) the value was 2.72 µM; for `C[C@H](N)C(=O)NC(Cc1ccccc1)C(O)CN1CCN(C[C@@H](O)[C@H](Cc2ccccc2)NC(=O)[C@H](C)N)CC1` (single isomer, unassigned), 6.98 µM.

These data come from ChEMBL document CHEMBL4118288, “Antiplasmodial activity of hydroxyethylamine analogs: Synthesis, biological activity and structure activity relationship of plasmepsin inhibitors” (Bioorg Med Chem, 2018).
